Values of other authors, collected in patent US10822301B2, “3-carbon substituted 4-aminocyclopent-1-ene-1-carboxylic acid compounds as inhibitors of gamma-aminobutyric acid (GABA) aminotransferase” (Northwestern University, priority 2018, dated 2020).

Experiments:
epilepsy patients = settings: long-term administration, share of epilepsy patients
[1] = test system: cocaine addiction in humans; settings: 9-week double-blind trial

C=CC(N)CCC(=O)O (centres unmarked) [vigabatrin]
permanent vision loss (damage of the retinal nerve fiber layer) (epilepsy patients): 25-40% | patients achieving abstinence [1]: up to 28%
